# From PubChem BioAssay AID330 (DTP/NCI, 2004)
# Where “and” joins values, the source holds several entries; their conditions need not be identical. Equal values may be shown once. Inconclusive results and toxic doses are left out.
# System: P388 leukemia ip, CD2F1 mice, survival T/C
# Test: NCI In Vivo Anticancer Drug Screen. Data for tumor model P388 Leukemia (intraperitoneal) in CD2F1 (CDF1) mice
# Details: endpoint: median survival time, higher = longer survival
# Method in brief: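 Mice carrying the transplanted tumor received test compound or vehicle. Survival was recorded in each group, and the value is the treated-group measurement divided by that of the vehicle-treated control group.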
# [1] = dose: 100.0 mg/kg/injection, schedule: Q04DX003 (ip), vehicle: saline with Tween-80
# [2] = dose: 200.0 mg/kg/injection, schedule: Q04DX003 (ip), vehicle: saline with Tween-80
# [3] = dose: 400.0 mg/kg/injection, schedule: Q04DX003 (ip), vehicle: saline with Tween-80
# [4] = dose: 50.0 mg/kg/injection, schedule: Q01DX009 (ip), vehicle: Klucel (hydroxypropylcellulose) (HPC)
# [5] = dose: 100.0 mg/kg/injection, schedule: Q01DX009 (ip), vehicle: Klucel (hydroxypropylcellulose) (HPC)
# [6] = dose: 200.0 mg/kg/injection, schedule: Q01DX009 (ip), vehicle: Klucel (hydroxypropylcellulose) (HPC)
compound,measurement,setting,value
O=C1NC(CO)C(=O)NC1CO (centres undefined),T/C,"dose: 12.5 mg/kg/injection, schedule: Q01DX009 (ip), vehicle: distilled water + Tween-80",90 % of control
same,T/C,"dose: 25.0 mg/kg/injection, schedule: Q01DX009 (ip), vehicle: distilled water + Tween-80",92 % of control
same,T/C,"dose: 50.0 mg/kg/injection, schedule: Q01DX009 (ip), vehicle: distilled water + Tween-80",90 % of control
same,T/C,"dose: 50.0 mg/kg/injection, schedule: Q01DX009 (ip), vehicle: saline",98 % of control
same,T/C,"dose: 50.0 mg/kg/injection, schedule: Q04DX003 (ip), vehicle: saline with Tween-80",100 % of control
same,T/C,"dose: 100.0 mg/kg/injection, schedule: Q01DX009 (ip), vehicle: distilled water + Tween-80",93 % of control
same,T/C,"dose: 100.0 mg/kg/injection, schedule: Q01DX009 (ip), vehicle: saline",95 % of control
same,T/C,[1],100 % of control
same,T/C,"dose: 200.0 mg/kg/injection, schedule: Q01DX009 (ip), vehicle: distilled water + Tween-80",90 % of control
same,T/C,"dose: 200.0 mg/kg/injection, schedule: Q01DX009 (ip), vehicle: saline",98 % of control
same,T/C,[2],99 % of control
same,T/C,"dose: 400.0 mg/kg/injection, schedule: Q01DX009 (ip), vehicle: distilled water + Tween-80",90 % of control
same,T/C,"dose: 400.0 mg/kg/injection, schedule: Q01DX009 (ip), vehicle: saline",104 % of control
same,T/C,[3],99 % of control
CN(N=O)C(=O)NCCCCCNC(=O)N(C)N=O,T/C,[1],100 % of control
same,T/C,[2],104 % of control
same,T/C,"dose: 400.0 mg/kg/injection, schedule: Q01DX009 (ip), vehicle: saline with Tween-80",150 % of control and 163 % of control
same,T/C,[3],104 % of control
same,T/C,"dose: 600.0 mg/kg/injection, schedule: Q01DX009 (ip), vehicle: saline with Tween-80",163 % of control
O=c1c(CN(CCO)CCO)c(-c2ccccc2)sc2ccccc12,T/C,"dose: 12.5 mg/kg/injection, schedule: Q04DX002 (ip), vehicle: saline with Tween-80",100 % of control
same,T/C,"dose: 25.0 mg/kg/injection, schedule: Q04DX002 (ip), vehicle: saline with Tween-80",100 % of control
same,T/C,"dose: 50.0 mg/kg/injection, schedule: Q04DX002 (ip), vehicle: saline with Tween-80",97 % of control
same,T/C,"dose: 100.0 mg/kg/injection, schedule: Q04DX002 (ip), vehicle: saline with Tween-80",91 % of control
CN1CC2(C)OC3(CC2(C)N1C)N(C)N(C)CC3(C)O (centres undefined),T/C,"dose: 50.0 mg/kg/injection, schedule: Q01DX005 (ip), vehicle: saline",101 % of control
same,T/C,"dose: 100.0 mg/kg/injection, schedule: Q01DX005 (ip), vehicle: saline",101 % of control
same,T/C,"dose: 200.0 mg/kg/injection, schedule: Q01DX005 (ip), vehicle: saline",101 % of control
CCSC(=O)c1ccc(S(=O)(=O)CC)cc1,T/C,[4],102 % of control
same,T/C,[5],98 % of control
same,T/C,[6],106 % of control
same,T/C,"dose: 400.0 mg/kg/injection, schedule: Q01DX009 (ip), vehicle: Klucel (hydroxypropylcellulose) (HPC)",107 % of control
CSC(=S)n1nc(-c2ccccc2)c(N=Nc2ccccc2[N+](=O)[O-])c1C,T/C,"dose: 100.0 mg/kg/injection, schedule: Q01DX001 (ip), vehicle: Klucel (hydroxypropylcellulose) (HPC)",98 % of control
same,T/C,"dose: 200.0 mg/kg/injection, schedule: Q01DX001 (ip), vehicle: Klucel (hydroxypropylcellulose) (HPC)",102 % of control
same,T/C,"dose: 400.0 mg/kg/injection, schedule: Q01DX001 (ip), vehicle: Klucel (hydroxypropylcellulose) (HPC)",103 % of control
S=c1[nH]c2ccccc2c2ccccc12,T/C,"dose: 25.0 mg/kg/injection, schedule: Q01DX009 (ip), vehicle: Klucel (hydroxypropylcellulose) (HPC)",100 % of control
same,T/C,[4],100 % of control
same,T/C,[5],88 % of control
same,T/C,[6],92 % of control
CC([NH-])C[NH-].O=[N+]([O-])O.O=[N+]([O-])O.[Pt+2] (centres undefined),T/C,"dose: 6.25 mg/kg/injection, schedule: Q04DX002 (ip), vehicle: saline",153 % of control
same,T/C,"dose: 12.5 mg/kg/injection, schedule: Q04DX002 (ip), vehicle: saline",100 % of control and 98 % of control
